{"source": "patent US8486889B1", "about": "“Composition and method for the treatment and prevention of endothelial dysfunction” (Advanced Medical Instruments, priority 2001, dated 2013)", "origin": "cited, not measured here", "key": {"[1]": {"details": "those on ASA"}, "[2]": {"details": "325 mg ASA every other day"}, "[3]": {"details": "in a fast dissolving tablet"}, "[4]": {"details": "aspirin use"}, "[5]": {"details": "500 mg/day, after one month"}, "[6]": {"details": "in vivo"}, "[7]": {"experiment": "not given", "remark": "listed apart in the source"}, "[8]": {"details": "glucosamine combined with an NSAID, activity preserved"}, "[9]": {"details": "Vioxx compared to naproxen"}, "[10]": {"details": "rabbit"}, "[11]": {"details": "rats, intragastric indomethacin, pre-treatment with zinc sulphate"}, "[12]": {"details": "taken orally, versus placebo"}, "[13]": {"details": "simultaneous administration of zinc"}, "[14]": {"details": "600 mg per day, double-blind trial"}}}
{"molecule": "CC(=O)Oc1ccccc1C(=O)O", "note": "[ASA, Acetylsalicylic acid]", "values": [{"measurement": "fewer strokes", "setting": "[1]", "result": 42, "unit": "%"}, {"measurement": "reduction in the incidence of subsequent myocardial infarction, stroke, and death from cardiovascular causes", "setting": "[2]; about 5 years", "result": 25, "unit": "%"}, {"measurement": "reduction in the incidence of first myocardial infarction", "setting": "[2]; about 5 years, 22,000 US male physicians", "result": 44, "unit": "%"}, {"measurement": "time to reach blood levels and inhibit platelet activity", "setting": "chewing the tablet", "result": 5, "unit": "min"}, {"measurement": "time to reach peak blood levels", "setting": "in vivo", "result": 30, "unit": "min"}, {"measurement": "ASA absorbed by the buccal mucosa", "setting": "[3]", "result": "16-35%"}, {"measurement": "reduction of the risk of breast cancer", "setting": "[4]", "result": 20, "unit": "%"}, {"measurement": "reduction of the risk of colorectal cancer", "setting": "[4]", "result": 50, "unit": "%"}, {"measurement": "reduction of the risk of lung cancer", "setting": "[4]", "result": 30, "unit": "%"}, {"measurement": "reduction of the risk of prostate cancer", "setting": "[4]", "result": 50, "unit": "%"}]}
{"molecule": "O=C1O[C@H]([C@@H](O)CO)C(O)=C1O", "note": "[Ascorbic acid]", "values": [{"measurement": "lowering of systolic blood pressure", "setting": "[5]", "result": 10, "unit": "%"}]}
{"molecule": "N[C@H]1C(O)O[C@H](CO)[C@@H](O)[C@@H]1O", "note": "(stereo partly shown) [Glucosamine]", "values": [{"measurement": "absorbed in the GI tract", "setting": "[6]", "result": 90, "unit": "%"}, {"measurement": "solubility", "setting": "[7]", "result": "very soluble in water"}, {"measurement": "factor of decrease of the amount of NSAID required to produce an antiexudative result", "setting": "[8]", "result": "2-2.7 times"}]}
{"molecule": "COc1ccc2[nH]cc(CCNC(C)=O)c2c1", "note": "[Melatonin]", "values": [{"measurement": "solubility", "setting": "[7]", "result": "high lipid and aqueous solubility"}]}
{"molecule": "CS(=O)(=O)c1ccc(C2=C(c3ccccc3)C(=O)OC2)cc1", "note": "[Vioxx, rofecoxib]", "values": [{"measurement": "risk of myocardial infarction", "setting": "[9]", "result": "four fold risk"}]}
{"molecule": "CNC[C@H](O)c1ccc(O)c(O)c1", "note": "[epinephrine, Epinephrine]", "values": [{"measurement": "time to peak of effectiveness", "setting": "[10]; 2.5 mg sublingual tablet", "result": 20.8, "unit": "min"}, {"measurement": "time to peak effectiveness", "setting": "[10]; injection", "result": 15.8, "unit": "min"}]}
{"molecule": "O=S(=O)([O-])[O-].[Zn+2]", "note": "[zinc sulphate]", "values": [{"measurement": "mucosal ulcerations", "setting": "[11]", "result": "completely prevented"}, {"measurement": "rate of gastric ulcer healing", "setting": "[12]", "result": "three times the rate of a placebo"}]}
{"molecule": "[Zn]", "note": "[zinc]", "values": [{"measurement": "salicylate-induced hearing loss", "setting": "[13]", "result": "completely prevented"}]}
{"molecule": "Vitamin E", "values": [{"measurement": "endothelial-dependent dilation of the brachial artery", "setting": "[14]", "result": "showed improvement"}]}
